Assay results as given in PubChem BioAssay AID1996.
Converted amounts (≈) assume the structure as drawn.

details: buffer; pH 7.4; 200.0 µM

Structure (SMILES)	solubility kinetic [µg/mL]
Cc1ccsc1-c1nc(CN2C[C@@H](C)O[C@@H](C)C2)c(C)o1	> 46
CN(C)S(=O)(=O)c1cccc(COC(=O)c2cnccn2)c1	41.7 (≈ 130 µM)
CC(C)C(NC(=O)c1ccc(Cl)c([N+](=O)[O-])c1)C(=O)NCc1ccccn1 (centres undefined)	40.6 (≈ 104 µM)
S=C(Nc1nc2c(s1)CCCC2)NC1CC1	5.7 (≈ 22.5 µM)
Cc1ccc(-c2cnco2)cc1	< 0.3
O=C1NC(=O)N(CCC2=CCCCC2)C(=O)/C1=C/c1cccs1	26.1 (≈ 79 µM)
S=C(NCCc1ccccc1)Nc1cnc2ccccc2c1	3.6 (≈ 11.7 µM)
CSc1ccc(CN(C)CC(=O)NCCc2ccccc2)cc1	> 49.3
COC(=O)Cc1ccc(NC(=S)NC2CC2)cc1	> 39.7
O=C(CSc1nc2ccccc2c(=O)n1CCCN1CCOCC1)Nc1ccc(Br)cc1	5.3 (≈ 10.2 µM)
COC(c1ccccc1)(c1ccccc1)C(Oc1nc(C)cc(C)n1)C(=O)O (centres undefined)	> 56.8
O=C(COC(=O)c1ccccc1O)NCc1ccccc1Cl	5 (≈ 15.6 µM)
CCOC(=O)c1sc(Nc2ccc(F)cc2)nc1C	< 0.3
COc1ccc(CCNC(=O)c2ccccc2SC)cc1	27.4 (≈ 90.9 µM)
Cc1ccc(Nc2ccccc2N)cc1	23.1 (≈ 117 µM)
Cc1cc(C)nc(NC(C)(C)C(=O)O)n1	> 31.4
O=C(CCC(=O)N1CCCC1)Nc1ccc(Cl)c(Cl)c1	5.6 (≈ 17.8 µM)
NC(=Nc1ccc(Cl)cc1)c1ccccc1	> 34.6
Cc1c(C(=O)Nc2ccccn2)oc2c(Cl)cccc12	9.4 (≈ 32.8 µM)
Nc1nc(SCC(=O)Nc2cccc(F)c2)n[nH]1	> 40.1
N#Cc1ccccc1NC(=S)NC(=O)c1cccs1	30.7 (≈ 107 µM)
COc1ccc(C(=O)OCC(=O)NC(C)CCc2ccccc2)cc1 (centres undefined)	10.1 (≈ 29.6 µM)
Cc1ccc(NC(=O)COC(=O)[C@@H]2CC(O)CN2S(=O)(=O)c2ccc3c(c2)OCCO3)cc1 (some centres undefined)	> 71.5
CC1(c2ccccc2)CC(C)(C)N2C(=O)Cc3cccc1c32 (centres undefined)	6 (≈ 20.6 µM)

Structure (SMILES)	solubility kinetic [µg/mL]
Cc1ccc(C23CC4CC(CC(CN)(C4)C2)C3)cc1.Cl	> 43.8
CC(=O)c1ccc(S(=O)(=O)N2CCN(CC#N)CC2)cc1	45.8 (≈ 149 µM)
Nc1c(C(=O)OCC(=O)Nc2cccc([N+](=O)[O-])c2)[nH]c(=O)[nH]c1=O	51.5 (≈ 147 µM)
O=C(CSc1nc2ncccc2[nH]1)NC1CCCCC1	> 43.6
Cc1ccccc1NC(=O)c1ccc2c(c1)CCN2S(C)(=O)=O	6.3 (≈ 19.1 µM)
CS(=O)(=O)N1CCCC(C(=O)Nc2ccc(F)c(F)c2)C1 (centres undefined)	> 47.8
O=C(COC(=O)/C=C/c1ccc(F)cc1)NCc1cccs1	8.7 (≈ 27.2 µM)
COC(=O)c1c(C)[nH]c(C(=O)NCc2ccco2)c1C	35.3 (≈ 128 µM)
CCOc1cc(N2CCOCC2)c(OCC)cc1NC(=O)c1ccc(OC)c(S(=O)(=O)N2CCOCC2)c1	45.2 (≈ 82.2 µM)
Cc1ccc2[nH]cc(CCNS(=O)(=O)c3ccc(F)cc3)c2c1	23 (≈ 69.2 µM)
Cc1ccnc(NC(=O)c2cccc(OC(F)F)c2)n1	39.9 (≈ 143 µM)
COc1ccccc1C(=O)C1CCCN(C(=O)c2ccco2)C1 (centres undefined)	> 47
CCN(Cc1ccccc1)C1CCN(Cc2ccccc2)CC1	34.2 (≈ 111 µM)
CCC(/C=N/NC(=O)c1ccccc1F)CC	> 35.4
Cc1cc(C)c2nc(NCc3ccccc3O)sc2c1	< 0.3
Cc1cccc(NC(=O)Nc2ccc(S(N)(=O)=O)cc2)c1	22.1 (≈ 72.4 µM)
OC1/C(=C/c2ccc(Cl)cc2Cl)N2CCC1CC2 (centres undefined)	28 (≈ 98.5 µM)
O=C(CNC(=O)c1ccc2ccccc2c1)NCc1ccccc1F	7.8 (≈ 23.2 µM)
CCOC(=O)c1ccc(NC(=O)CSCCC(=O)O)cc1	45.1 (≈ 145 µM)
O=C(OCC(=O)N1CCCC1)c1cnc(Cl)c(Cl)c1	> 45.5
CCOC(=O)C(=O)C1=CN(Cc2ccccc2)C=C(C#N)C1	> 44.4
COc1ccc(C(=O)Nc2ccc3[nH]ccc3c2)cc1	> 39.9
CCCCC(=O)Nc1ccccc1N1CCN(c2ccc(F)cc2)CC1	4.3 (≈ 12.1 µM)
Cc1ccccc1Oc1nc2c(c(=O)n(C)c(=O)n2C)n1C	> 45

Structure (SMILES)	solubility kinetic [µg/mL]
Cc1cc(NCCCOC(C)C)n2c(nc3ccccc32)c1C#N	1.4 (≈ 4.34 µM)
O=C(O)c1ccc(NCCC2=CCCCC2)c([N+](=O)[O-])c1	41.9 (≈ 144 µM)
O=C(O)C1CC(=O)N(CCc2ccc(F)cc2)C1 (centres undefined)	> 37.7
Cc1cc(OCc2nc3ccccc3s2)ccc1N	30.6 (≈ 113 µM)
Cc1ccc(NC(=O)C2Oc3ccccc3OC2C)cc1 (centres undefined)	28 (≈ 98.8 µM)
On1c(-c2ccc(Cl)cc2Cl)nc2ncccc21	> 42
O=C(NCCC1=CCCCC1)C(=O)NCCc1ccc(Cl)cc1	< 0.4
COc1ccccc1N(Cc1cc(=O)[nH]c2ccccc12)C(C)=O	> 48.4
O=C(NC1CCSC1=O)C1CCCCC1 (centres undefined)	> 34.1
CCCCOc1ccc(C(=O)NCC(=O)NNC(=O)c2ccco2)cc1	> 53.9
O=C(Cc1ccc([N+](=O)[O-])cc1)N1CCCc2ccccc21	39.5 (≈ 133 µM)
CC(=O)c1ccc(NC(=O)C[n+]2cccc(C)c2)cc1.[Cl-]	> 45.7
NC(=O)C1CCCNC1 (centres undefined)	> 19.2
O=C(Nc1cccc2ccccc12)NC(Cc1ccccc1)C(=O)O (centres undefined)	> 50.2
O=C(Nc1cccc([N+](=O)[O-])c1)C1C2CC/C=C\CCC21 (centres undefined)	0.8 (≈ 2.79 µM)
Cc1cc(C(F)(F)F)nn1CC(=O)N(C)c1ccccc1	> 44.6
C#CCOC(=O)C[N+](C)(C)CC=C.[Cl-]	> 32.7
CCc1cc2c(=O)oc(-c3ccccc3F)nc2s1	0.7 (≈ 2.54 µM)
CNC(=O)CC1C(=O)N(C)C(=S)N1NC(=O)c1ccccc1 (centres undefined)	> 48.1
O=C1Cc2ccccc2C(c2ccc(Cl)cc2Cl)N1 (centres undefined)	3.1 (≈ 10.6 µM)
CCN(CC)C(=O)CN1C(=O)NC2(CCc3ccccc3C2)C1=O (centres undefined)	> 49.4
Cc1cc2nc(-c3ccc[nH]c3=O)n(Cc3cccc(F)c3)c2cc1C	1.3 (≈ 3.74 µM)
COc1ccc(NS(=O)(=O)c2cc(NC(=O)COc3ccccc3)ccc2N2CCOCC2)cc1	3.1 (≈ 6.23 µM)
O=C(CN1CCOCC1)NN=C(c1ccccc1)c1ccccc1	> 48.5

Structure (SMILES)	solubility kinetic [µg/mL]
O=S(=O)(c1ccc2ccccc2c1)N1CCNCC1	32.7 (≈ 118 µM)
COc1ccc2[nH]c3c(=O)n(CCc4ccccc4)cnc3c2c1	0.6 (≈ 1.88 µM)
COc1ccc(Nc2ccc(C(F)(F)F)cc2[N+](=O)[O-])cn1	1.8 (≈ 5.75 µM)
Cc1c(C(=O)N2CCCc3ccccc32)oc2ccccc12	5.7 (≈ 19.6 µM)
CCOc1ccc(N/C(C)=C/C(=O)c2ccc3c(c2)OCCO3)cc1	0.8 (≈ 2.36 µM)
CC(=O)NC(=S)Nc1ccc(NC(=O)c2cccnc2)cc1	10.2 (≈ 32.4 µM)
Cc1ccc(S(=O)(=O)N(C)c2ccc(OC(=O)c3cc(=O)[nH]c4ccccc34)cc2)cc1	2.7 (≈ 6.02 µM)
O=C(NCCCNC(=O)c1cc(Cl)ccc1Cl)c1cnccn1	45.4 (≈ 129 µM)
O=C1Nc2ccccc2C1C(C[N+](=O)[O-])c1ccccn1 (centres undefined)	> 42.5
CCCCN(C)CCNC(=O)c1cn(C)c(=O)c2c1c1ccccc1n2C	> 55.3
COc1ccc(CNC(=O)c2ccc3ccccc3n2)cc1	18.4 (≈ 62.9 µM)
O=C(Nc1cccc2ccccc12)c1ccc([N+](=O)[O-])o1	40.3 (≈ 143 µM)
COc1ccc(NC(=O)c2ccccc2)c([N+](=O)[O-])c1	2.1 (≈ 7.71 µM)
Cn1c(CC(=O)Nc2ccccc2)cc2ccccc21	1.7 (≈ 6.43 µM)
CC(=O)NC(Cc1c[nH]c2ccccc12)C(=O)NCCc1ccccc1 (centres undefined)	> 52.4
CCCn1c(O)c(N=N)c2ccccc21	> 30.5
Cc1cc(C(=O)OCC(=O)N(C)c2ccccc2)c(C)o1	> 43.1
COc1cc(/C=C2/CC(C)OC2=O)c([N+](=O)[O-])cc1OC (centres undefined)	> 44
O=C(NC1CCCCCCC1)c1cccs1	22.5 (≈ 94.8 µM)
COc1ccc(/C=C(\C#N)C(=O)OC2CCOC2=O)cc1 (centres undefined)	> 43.1
O=c1c2ccccc2nc(/C=C/c2ccc(Cl)cc2)n1CCO	1.3 (≈ 3.98 µM)
COC(=O)C1CCN(c2ccc([N+](=O)[O-])cc2[N+](=O)[O-])CC1	> 46.4
CCOC(=O)C1(Cc2ccccc2)C(=O)N(CCCN(C)C)c2ccccc21.Cl (centres undefined)	57
Cc1sc2ncnc(SCC(=O)NC(C)C(C)C)c2c1C (centres undefined)	4.6 (≈ 14.2 µM)

Structure (SMILES)	solubility kinetic [µg/mL]
CNC(=O)C(=O)Nc1cc2c3c(c1)CCC(=O)N3CCC2	19 (≈ 66.1 µM)
COc1ccc(NC(=O)c2cccnn2)cc1	> 34.4
Nc1cccc(S(=O)(=O)Nc2ccc(Br)cc2)c1	> 49.1
COC(=O)c1ccc(NC(=S)N2CCN(CCO)CC2)cc1	> 48.5
CC(=O)c1cccc(Nc2c([N+](=O)[O-])c(=O)oc3ccccc23)c1	0.9 (≈ 2.78 µM)
COCCNC(=O)c1cc(Sc2nnc(C)s2)nc2ccccc12	> 54.1
CCCCNC(=O)C1CCC(CNc2nc(=S)[nH]c3ccccc23)CC1 (centres undefined)	2.6 (≈ 6.98 µM)
COCCNC(=O)c1ccc(CSc2nc3ccccc3s2)cc1	27.6 (≈ 77 µM)
Cc1cc(C)n2nc(C(=O)OCC(=O)Nc3ccc(C)c(F)c3)nc2n1	> 53.6
Cc1ccccc1NS(=O)(=O)c1cccc2nsnc12	> 45.8
CN1CCN(c2nc(-c3cccc([N+](=O)[O-])c3)nc3ccccc23)CC1	8.5 (≈ 24.3 µM)
Cc1ccc(SCc2cn3cc(Cl)ccc3n2)cc1	2.9 (≈ 10 µM)
COc1ccccc1N(CC(=O)Nc1ccccc1C(F)(F)F)S(=O)(=O)c1cccs1	9 (≈ 19.1 µM)
Cc1ccc(NC(=S)NCc2ccc(F)cc2)c(C)c1	36.2 (≈ 126 µM)
COc1cccc(NC(=O)C(=O)NCCc2ccc(F)cc2)c1	< 0.3
Cc1ccc2c(C(=O)CN3CC(C)CC(C)C3)c(C)[nH]c2c1 (centres undefined)	38.6 (≈ 129 µM)
Cc1cccc(/C(N)=N/OC(=O)c2ccoc2C)c1	38 (≈ 147 µM)
Cc1cc(Cl)ccc1NC(=S)NC(C)(C)C	28.3 (≈ 110 µM)
O=C(O)CCCN1C(=O)c2cccc3cccc(c23)C1=O	31.8 (≈ 112 µM)
O=C(CN1C(=O)c2cccc3cccc1c23)NC1CCCCC1	1.8 (≈ 5.84 µM)
Cn1c(SCC(=O)Nc2cccnc2Cl)nnc1-c1ccco1	> 52.5
CCC(C)NC(=O)CN1C(=O)NC2(CCOc3ccccc32)C1=O (centres undefined)	> 49.7
OCC1CCCCN1C(=S)Nc1cccc(Cl)c1 (centres undefined)	> 42.7
